Legend:
[1] = tested on: VL51 idelalisib-resistant; test: MTT cell proliferation, lymphoma; format: cell-based; settings: Homo sapiens, 72 h, of untreated cells, read-out: Proliferating cells (%)
Method: (§1) All compounds were further tested at the concentration of 1 μM on four cell lines derived from distinct lymphoma histotypes, plus two with secondary resistance to the PI3Kδ inhibitor idelalisib[51] or to the BTK inhibitor ibrutinib.[52] […] For comparison, the same experiments were conducted using compound 3, but the response to it was minimal, and thus it was not considered further.
(§2) Established human cell lines derived from germinal center B-cell (GCB) (SU-DHL-10), activated B-cell (ABC) (HBL1) diffuse large B-cell lymphoma (DLBCL), mantle cell lymphoma (MCL) (MINO), splenic marginal zone lymphoma (SMZL) (parental VL51, VL51 idelalisib resistant clone, VL51 ibrutinib resistant clone) were cultured in culture RPMI-1640 media supplemented with fetal bovine serum (10%), penicillin–streptomycin–neomycin (∼5,000 units of penicillin, 5 mg of streptomycinm and 10 mg of neomycin/mL, Sigma), and L-glutamine (1%). Vincristine sulfate was purchased from Sigma-Aldrich. Cell line identities were confirmed by CellCheck test (IDEXX, BioResearch, Ludwigsburg, Germany). All compounds were dissolved in dimethyl sulfoxide to obtain a stock concentration of 10 mM.
(§3) The antiproliferative activity of all compounds was assessed by using the 3-(4.5-dimethylthiazolyl-2)-2,5-diphenyltetrazolium bromide (MTT) test. Cells were seeded in 96-well plates (nontissue culture treated) at a density of 1 × 10^5 cells/mL and treated with a single concentration of 1 μM for 72 h. […] In this case, cells were treated in triplicate with serially diluted compounds in the appropriate tissue culture medium at a range of 40–10 000 nM. Cells were incubated for 72 h at 37 °C, 5% CO2. Wells containing medium only were included on each plate and served as blanks for absorbance readings. MTT (Sigma, Buchs, Switzerland) was prepared as a 5 mg/mL stock solution in phosphate buffered saline (PBS) and filter-sterilized. MTT solution (22 μL) was added to each well, and tissue culture plates were incubated at 37 °C for 4 h. Cells were then lysed with 25% sodium dodecyl sulfate lysis buffer, and absorbance was read at 570 nm using a Beckman Coulter-AD340 plate reader.

MINO (MCL) = test: MTT cell proliferation, lymphoma; format: cell-based; settings: Homo sapiens, 72 h; for activity at 1 µM: of untreated cells, read-out: Proliferating cells (%)
Method: as §1, §2, §3

SU-DHL-10 (GCB DLBCL) = test: MTT cell proliferation, lymphoma; format: cell-based; settings: Homo sapiens, SU-DHL10, 72 h; for activity at 1 µM: of untreated cells, read-out: Proliferating cells (%)
Method: as §1, §2, §3

HBL1 (ABC DLBCL) = test: MTT cell proliferation, lymphoma; format: cell-based; settings: Homo sapiens, 72 h; for activity at 1 µM: of untreated cells, read-out: Proliferating cells (%)
Method: as §1, §2, §3

VL51 ibrutinib-resistant = test: MTT cell proliferation, lymphoma; format: cell-based; settings: Homo sapiens, 72 h, of untreated cells, read-out: Proliferating cells (%)
Method: as §1, §2, §3

VL51 (MZL) = test: MTT cell proliferation, lymphoma; format: cell-based; settings: Homo sapiens, 72 h; for activity at 1 µM: of untreated cells, read-out: Proliferating cells (%)
Method: as §1, §2, §3

tubulin colchicine site = tubulin colchicine site (Bos taurus, UniProt P81947+Q6B856); test: Inhibition of [3H]colchicine binding to tubulin; settings: read-out: inhibition of colchicine binding % inhibition ± SD
tubulin colchicine site, sequence (Q6B856 whole entry): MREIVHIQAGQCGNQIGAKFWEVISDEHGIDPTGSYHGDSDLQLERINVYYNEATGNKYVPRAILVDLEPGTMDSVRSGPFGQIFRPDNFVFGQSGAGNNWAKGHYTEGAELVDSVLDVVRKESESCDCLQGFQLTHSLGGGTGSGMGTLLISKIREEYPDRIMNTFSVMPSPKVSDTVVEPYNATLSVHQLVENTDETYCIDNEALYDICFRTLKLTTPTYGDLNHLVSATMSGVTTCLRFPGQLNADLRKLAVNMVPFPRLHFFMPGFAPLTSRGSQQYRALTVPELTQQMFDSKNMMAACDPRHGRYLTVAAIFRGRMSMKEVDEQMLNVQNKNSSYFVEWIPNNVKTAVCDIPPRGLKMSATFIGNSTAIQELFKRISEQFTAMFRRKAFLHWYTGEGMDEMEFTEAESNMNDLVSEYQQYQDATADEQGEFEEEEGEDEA
tubulin colchicine site, sequence (P81947 whole entry): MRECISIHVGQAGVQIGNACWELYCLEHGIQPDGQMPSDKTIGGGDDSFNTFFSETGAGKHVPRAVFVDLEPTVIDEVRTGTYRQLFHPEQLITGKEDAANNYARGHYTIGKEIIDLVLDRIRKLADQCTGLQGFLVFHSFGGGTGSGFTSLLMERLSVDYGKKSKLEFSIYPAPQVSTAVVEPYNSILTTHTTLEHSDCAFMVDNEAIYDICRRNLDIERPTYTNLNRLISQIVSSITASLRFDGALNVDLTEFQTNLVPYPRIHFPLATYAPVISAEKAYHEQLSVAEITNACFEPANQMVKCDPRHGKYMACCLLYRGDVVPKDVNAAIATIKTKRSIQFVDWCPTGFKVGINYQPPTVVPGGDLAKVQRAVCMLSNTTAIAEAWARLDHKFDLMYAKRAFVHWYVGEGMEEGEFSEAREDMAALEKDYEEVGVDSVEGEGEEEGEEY
Method: Reaction mixtures in the assembly assay contained 9 μM (0.9 mg/mL) tubulin in the assembly assay, and in the colchicine assay they contained 0.5 μM tubulin, 5.0 μM [^3H]colchicine, and 5.0 μM inhibitor.
Analysis of effects on tubulin polymerization was performed by turbidimetry at 350 nm in recording spectrophotometers equipped with electronic temperature controllers as described in detail elsewhere.[71] […] The binding of [^3H]colchicine to tubulin was perfomed as described in detail previously[72] except that the tubulin concentration was reduced from 0.1 mg/mL to 0.05 mg/mL and only one, instead of two, DEAE-cellulose filter was used for each reaction mixture.

Row | SMILES | activity at 1 µM [1] | activity at 1 µM (MINO (MCL)) | activity at 1 µM (SU-DHL-10 (GCB DLBCL)) | activity at 1 µM (HBL1 (ABC DLBCL)) | activity at 1 µM (VL51 ibrutinib-resistant) | activity at 1 µM (VL51 (MZL)) | inhibition at 5 µM (tubulin colchicine site) | IC50 (MINO (MCL); MTT) | IC50 (SU-DHL-10 (GCB DLBCL); MTT) | IC50 (HBL1 (ABC DLBCL); MTT) | IC50 (VL51 (MZL); MTT)
1 | CCOC(=O)c1c(Cl)c2c(n1C)-c1oncc1CCC2 [Compound 69, Ethyl 7-Chloro-9-methyl-4,5,6,9-tetrahydropyrrolo[2′,3′:3,4]cyclohepta[1,2-d][1,2]oxazole-8-carboxylate] | 121% | 116% | 78.5% | 103% | 110% | 93.8% |  |  |  |  | 
2 | CCOC(=O)c1cc2c(n1C)-c1oncc1CCC2 [Compound 60, Ethyl 9-Methyl-4,5,6,9-tetrahydropyrrolo[2′,3′:3,4]cyclohepta[1,2-d][1,2]oxazole-8-carboxylate] | 115% | 112% | 61.7% | 146% | 125% | 108% |  |  |  |  | 
3 | COc1ccc(/C=C\c2cc(OC)c(OC)c(OC)c2)cc1O [CA-4, combretastatin A-4, reference compound] |  |  |  |  |  |  | 97 ± 0.9% |  |  |  | 
4 | COc1cccc(Cn2ccc3c2-c2oncc2CCC3)c1 [Compound 55, 9-(3-Methoxybenzyl)-4,5,6,9-tetrahydropyrrolo[2′,3′:3,4]cyclohepta[1,2-d][1,2]oxazole] | 133% | 115% | 80.3% | 127% | 125% | 112% |  |  |  |  | 
5 | CCOC(=O)c1c(Cl)c2c(n1Cc1ccc(OC)cc1)-c1oncc1CCC2 [Compound 73, Ethyl 7-Chloro-9-(4-methoxybenzyl)-4,5,6,9-tetrahydropyrrolo[2′,3′:3,4]cyclohepta[1,2-d][1,2]oxazole-8-carboxylate] | 126% | 99.5% | 87.4% | 107% | 102% | 113% |  |  |  |  | 
6 | COC(=O)c1cc2c(n1Cc1ccccc1)-c1oncc1CCC2 [Compound 68, Methyl 9-Benzyl-4,5,6,9-tetrahydropyrrolo[2′,3′:3,4]cyclohepta[1,2-d][1,2]oxazole-8-carboxylate] | 123% | 98.8% | 78.9% | 109% | 120% | 94.5% |  |  |  |  | 
7 | CCOC(=O)c1cc2c(n1Cc1ccc(OC)cc1)-c1oncc1CCC2 [Compound 64, Ethyl 9-(4-Methoxybenzyl)-4,5,6,9-tetrahydropyrrolo[2′,3′:3,4]cyclohepta[1,2-d][1,2]oxazole-8-carboxylate] | 116% | 112% | 66.3% | 125% | 102% | 87.4% |  |  |  |  | 
8 | c1ccc(Cn2ccc3c2-c2oncc2CCC3)cc1 [Compound 53, 9-Benzyl-4,5,6,9-tetrahydropyrrolo[2′,3′:3,4]cyclohepta[1,2-d][1,2]oxazole] | 128% | 109% | 70.2% | 109% | 125% | 103% |  |  |  |  | 
9 | COc1ccccc1Cn1ccc2c1-c1oncc1CCC2 [Compound 54, 9-(2-Methoxybenzyl)-4,5,6,9-tetrahydropyrrolo[2′,3′:3,4]cyclohepta[1,2-d][1,2]oxazole] | 136% | 112% | 141% | 122% | 112% | 120% |  |  |  |  | 
10 | CCOC(=O)c1c(Cl)c2c(n1Cc1cc(OC)ccc1OC)-c1oncc1CCC2 [Compound 74, Ethyl 7-Chloro-9-(2,5-dimethoxybenzyl)-4,5,6,9-tetrahydropyrrolo[2′,3′:3,4]cyclohepta[1,2-d][1,2]oxazole-8-carboxylate] | 37.7% | 9.8% | 13.3% | 29% | 44.4% | 40.4% |  | 800 nM | 700 nM | 1000 nM | 500 nM

Reference: publication PMC7901646, “Pyrrolo[2′,3′:3,4]cyclohepta[1,2-d][1,2]oxazoles, a New Class of Antimitotic Agents Active against Multiple Malignant Cell Types” (Journal of Medicinal Chemistry, 2020)
